Measurements taken from ChEMBL document CHEMBL1201862, “PubChem BioAssay data set” (2004).
Activity calls are given as the source filed them.

Tests used:
[1] = target: T1, Methionyl-tRNA synthetase, putative (Trypanosoma brucei brucei, UniProt Q38C91); format: functional, Trypanosoma brucei brucei strain 927/4 GUTat10.1
T1 sequence (Q38C91 whole entry): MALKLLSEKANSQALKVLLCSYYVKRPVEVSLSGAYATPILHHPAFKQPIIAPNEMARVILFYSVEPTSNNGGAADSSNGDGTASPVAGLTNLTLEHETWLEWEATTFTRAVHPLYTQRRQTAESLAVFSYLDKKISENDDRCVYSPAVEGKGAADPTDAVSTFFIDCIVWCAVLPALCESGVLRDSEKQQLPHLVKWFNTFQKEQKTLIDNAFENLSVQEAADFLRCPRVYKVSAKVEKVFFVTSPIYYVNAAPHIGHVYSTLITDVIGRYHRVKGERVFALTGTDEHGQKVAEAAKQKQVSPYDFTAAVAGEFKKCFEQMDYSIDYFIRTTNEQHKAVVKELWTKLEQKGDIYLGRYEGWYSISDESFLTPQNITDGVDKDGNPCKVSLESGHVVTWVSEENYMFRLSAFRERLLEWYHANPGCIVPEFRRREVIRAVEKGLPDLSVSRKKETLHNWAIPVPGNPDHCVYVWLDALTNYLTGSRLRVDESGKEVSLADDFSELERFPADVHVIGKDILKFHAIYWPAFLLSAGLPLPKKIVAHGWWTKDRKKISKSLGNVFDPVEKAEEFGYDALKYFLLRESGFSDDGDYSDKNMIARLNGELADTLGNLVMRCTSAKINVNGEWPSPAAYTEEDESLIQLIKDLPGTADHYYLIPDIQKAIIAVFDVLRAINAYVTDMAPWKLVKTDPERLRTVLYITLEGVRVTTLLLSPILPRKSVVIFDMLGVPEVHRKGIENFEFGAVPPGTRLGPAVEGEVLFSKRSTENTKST

[2] = Counterscreen for inhibitors of Trypanosoma brucei methionyl tRNA synthetase (MetRS): Luminescence-based cell-based high throughput dose response assay to identify compounds that are cytotoxic to Jurkat human T lymphocyte cells.; format: functional
[3] = target: T1, Methionyl-tRNA synthetase, putative; format: functional, Trypanosoma brucei brucei strain 927/4 GUTat10.1; remark: listed apart in the source
[4] = Late stage counterscreen for inhibitors of Trypanosoma brucei methionyl tRNA synthetase (MetRS): Luminescence-based cell-based high throughput dose response assay to identify compounds that are cytotoxic to Jurkat human T lymphocyte cells.; format: functional
[5] = target: Luciferin 4-monooxygenase (Photinus pyralis, UniProt P08659); test: Counter Screen for Luciferase-based Assay Positives. [Related pubchem assays: 620, 618, 411 ]
HT-1080 = test: HT1080 cell viability loss – fluorescence readout (AID 620); format: functional, cell-based; conditions: Homo sapiens
[6] = toxicity toward HEK293 cells – cell-based, dry powder samples, cytotoxicity control, dose response (AID 720567); format: functional
[7] = target: 1-phosphatidylinositol 4,5-bisphosphate phosphodiesterase gamma-1 (Homo sapiens, UniProt P19174); test: Counterscreen for inhibitors of phospholipase C isozymes (PLC-B3): Fluorescence-based biochemical high throughput dose response assay to identify inhibitors of phospholipase C isozymes (PLC-gamma1).
[8] = target: 1-phosphatidylinositol 4,5-bisphosphate phosphodiesterase beta-3 (Homo sapiens, UniProt Q01970); test: Fluorescence-based biochemical high throughput dose response assay to identify inhibitors of phospholipase C isozymes (PLC-B3).
[9] = blockers of HIV-1 envelope-mediated cell-cell fusion – cherry-pick, dose response (AID 652057); format: functional, cell-based
[10] = viability loss in CEM21 cells – cell-based, CellTiter-Glo luminescence, cherry-picked, cytotoxicity control for viral fusion inhibitor project, dose response (AID 652042); format: functional;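 further: potency for signal decrease meaning cytotoxicity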
[11] = inhibition of Env-driven cell fusion – HIV entry, plate reader, dry powder, dose response (AID 687023); format: functional, cell-based
[12] = viability loss in CEM21 cells – cell-based, plate reader, dry powder, cytotoxicity control, dose response (AID 687026); format: functional
[13] = inhibitors of non-replicating M. tuberculosis, dose response, luciferase, dry powder (AID 651619); format: functional; conditions: Mycobacterium tuberculosis
[14] = HepG2 hepatoma cell viability loss – plate reader, dry powder, cytotoxicity control, dose response (AID 651947); format: functional, cell-based
[15] = HeLa cell viability loss – plate reader, dry powder, cytotoxicity control, dose response (AID 651946); format: functional, cell-based
[16] = inhibitors of non-replicating M. tuberculosis, dose response, luciferase, dry powder (AID 651620); format: functional; conditions: Mycobacterium tuberculosis
[17] = growth inhibition of replicating M. tuberculosis, dose response, counter-screen, dry powder, IC90 (AID 651617); format: functional; conditions: Mycobacterium tuberculosis

Chain of Luciferin 4-monooxygenase (P08659 whole entry): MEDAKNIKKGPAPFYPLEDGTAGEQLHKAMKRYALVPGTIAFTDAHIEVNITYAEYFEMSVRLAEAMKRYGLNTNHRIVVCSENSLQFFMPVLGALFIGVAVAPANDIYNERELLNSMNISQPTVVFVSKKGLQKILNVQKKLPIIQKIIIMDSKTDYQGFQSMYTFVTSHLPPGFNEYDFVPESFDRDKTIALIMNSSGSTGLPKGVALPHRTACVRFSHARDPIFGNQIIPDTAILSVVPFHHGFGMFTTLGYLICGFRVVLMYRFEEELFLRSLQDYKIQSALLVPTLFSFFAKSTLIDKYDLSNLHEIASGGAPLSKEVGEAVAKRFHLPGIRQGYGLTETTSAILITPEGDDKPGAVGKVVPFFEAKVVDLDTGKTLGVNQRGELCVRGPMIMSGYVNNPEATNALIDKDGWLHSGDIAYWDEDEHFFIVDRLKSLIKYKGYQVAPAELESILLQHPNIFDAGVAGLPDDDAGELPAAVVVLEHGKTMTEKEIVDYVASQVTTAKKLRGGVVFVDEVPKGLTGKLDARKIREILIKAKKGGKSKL
Chain of 1-phosphatidylinositol 4,5-bisphosphate phosphodiesterase beta-3 (Q01970 whole entry, the tested form may be a part): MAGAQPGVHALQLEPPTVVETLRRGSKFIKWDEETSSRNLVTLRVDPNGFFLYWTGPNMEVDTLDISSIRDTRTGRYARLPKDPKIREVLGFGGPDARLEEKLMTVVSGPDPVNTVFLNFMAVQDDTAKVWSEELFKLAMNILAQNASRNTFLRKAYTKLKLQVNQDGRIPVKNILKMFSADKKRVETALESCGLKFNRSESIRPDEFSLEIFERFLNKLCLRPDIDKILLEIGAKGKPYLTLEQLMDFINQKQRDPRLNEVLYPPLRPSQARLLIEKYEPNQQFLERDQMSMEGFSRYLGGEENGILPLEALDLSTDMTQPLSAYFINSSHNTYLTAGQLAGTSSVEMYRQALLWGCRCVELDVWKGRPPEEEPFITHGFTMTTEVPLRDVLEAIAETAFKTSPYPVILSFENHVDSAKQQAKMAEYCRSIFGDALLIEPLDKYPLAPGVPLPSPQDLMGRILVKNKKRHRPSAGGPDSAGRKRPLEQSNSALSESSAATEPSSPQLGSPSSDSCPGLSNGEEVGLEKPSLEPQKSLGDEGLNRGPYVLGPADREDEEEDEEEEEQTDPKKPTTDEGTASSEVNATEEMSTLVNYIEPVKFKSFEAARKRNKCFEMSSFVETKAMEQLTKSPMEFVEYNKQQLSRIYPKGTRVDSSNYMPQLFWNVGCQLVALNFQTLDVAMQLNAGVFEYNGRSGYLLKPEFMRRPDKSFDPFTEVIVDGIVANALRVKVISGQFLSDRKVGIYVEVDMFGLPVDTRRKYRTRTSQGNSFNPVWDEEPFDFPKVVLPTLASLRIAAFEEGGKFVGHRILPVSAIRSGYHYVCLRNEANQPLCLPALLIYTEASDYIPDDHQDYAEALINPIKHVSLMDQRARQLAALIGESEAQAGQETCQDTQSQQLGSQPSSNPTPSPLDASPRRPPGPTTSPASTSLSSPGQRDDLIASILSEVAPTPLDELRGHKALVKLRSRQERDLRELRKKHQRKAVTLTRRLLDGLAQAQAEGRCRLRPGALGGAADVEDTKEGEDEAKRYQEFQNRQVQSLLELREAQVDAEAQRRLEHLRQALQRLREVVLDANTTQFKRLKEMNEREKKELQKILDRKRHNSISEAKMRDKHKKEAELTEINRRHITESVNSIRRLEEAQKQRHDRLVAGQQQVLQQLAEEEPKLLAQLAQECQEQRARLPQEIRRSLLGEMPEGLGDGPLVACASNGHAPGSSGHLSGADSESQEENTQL
Chain of 1-phosphatidylinositol 4,5-bisphosphate phosphodiesterase gamma-1 (P19174 whole entry): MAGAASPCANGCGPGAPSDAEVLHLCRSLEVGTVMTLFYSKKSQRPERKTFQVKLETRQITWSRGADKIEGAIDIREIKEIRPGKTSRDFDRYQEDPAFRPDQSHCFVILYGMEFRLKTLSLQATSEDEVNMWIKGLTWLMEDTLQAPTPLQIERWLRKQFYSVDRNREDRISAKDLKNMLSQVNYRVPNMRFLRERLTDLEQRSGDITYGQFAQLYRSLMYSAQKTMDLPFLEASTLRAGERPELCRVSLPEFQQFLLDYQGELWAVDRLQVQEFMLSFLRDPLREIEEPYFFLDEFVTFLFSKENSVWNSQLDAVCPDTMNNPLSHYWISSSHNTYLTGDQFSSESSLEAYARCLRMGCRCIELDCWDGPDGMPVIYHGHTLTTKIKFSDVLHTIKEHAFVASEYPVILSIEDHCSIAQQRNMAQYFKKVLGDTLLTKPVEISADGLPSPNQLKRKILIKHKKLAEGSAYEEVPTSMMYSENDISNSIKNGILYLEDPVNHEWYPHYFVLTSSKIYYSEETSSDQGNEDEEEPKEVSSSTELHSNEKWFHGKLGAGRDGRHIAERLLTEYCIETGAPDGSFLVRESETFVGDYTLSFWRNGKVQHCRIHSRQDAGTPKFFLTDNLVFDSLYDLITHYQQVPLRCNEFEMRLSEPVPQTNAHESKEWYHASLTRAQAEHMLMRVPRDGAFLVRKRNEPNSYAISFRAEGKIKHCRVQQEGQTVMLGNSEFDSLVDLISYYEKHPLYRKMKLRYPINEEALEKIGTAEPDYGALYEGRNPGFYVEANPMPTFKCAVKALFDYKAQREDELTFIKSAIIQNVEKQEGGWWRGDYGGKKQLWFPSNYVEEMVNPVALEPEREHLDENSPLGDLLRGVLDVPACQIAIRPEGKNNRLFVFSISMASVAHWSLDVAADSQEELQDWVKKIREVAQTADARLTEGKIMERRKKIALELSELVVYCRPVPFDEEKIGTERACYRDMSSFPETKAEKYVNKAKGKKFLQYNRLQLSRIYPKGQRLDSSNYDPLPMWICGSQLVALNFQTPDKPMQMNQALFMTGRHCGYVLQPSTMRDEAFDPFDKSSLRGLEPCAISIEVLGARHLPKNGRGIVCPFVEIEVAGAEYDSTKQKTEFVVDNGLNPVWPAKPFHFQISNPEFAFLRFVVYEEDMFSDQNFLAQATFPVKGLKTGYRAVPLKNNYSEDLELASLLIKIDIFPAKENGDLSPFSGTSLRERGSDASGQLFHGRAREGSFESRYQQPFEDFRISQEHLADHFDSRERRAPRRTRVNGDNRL

O=C(NCc1nc2ccccc2[nH]1)C1=C[C@H](c2ccc3c(c2)OCO3)C[C@H](OCCCCO)O1
IC50 [1]: 3.35 µM (active)
IC50 [2]: 83.3 µM (inactive)
IC50 [3]: 1.84 µM (active)
IC50 [4]: > 83.3 µM (inactive)

Cc1cc(NC(=O)CSc2nc(-c3ccco3)cc(C(F)(F)F)n2)no1
EC50 [5]: 1.59 µM (active)
EC50 (HT-1080): 6.41 µM (active)
AC50 [6]: > 30 µM (inactive)

O=C(NCc1ccc(F)cc1)c1cc2c(s1)CCCC2
IC50 [7]: > 123 µM (inactive)
IC50 [8]: > 123 µM (inactive)

C[C@@H]1CN([C@H](C)CO)C(=O)c2cccc(NS(=O)(=O)c3ccc(Cl)cc3)c2O[C@@H]1CN(C)Cc1ccc(Cl)c(Cl)c1
AC50 [9]: 1.45 µM (active)
AC50 [10]: 52.9 µM (active)
AC50 [11]: 7.39 µM (active)
AC50 [12]: 18.9 µM (active)

Clc1ccc(-c2nnc(SCc3ccccn3)o2)cc1
IC90 [13]: 4 µM (active)
AC50 [14]: 27.8 µM (active)
AC50 [15]: > 52 µM (inactive)
IC90 [16]: 4 µM (active)
IC90 [17]: 62 µM (active)
